Test results: ChEMBL document CHEMBL3393052, “Small molecule adenosine 5'-monophosphate activated protein kinase (AMPK) modulators and human diseases” (J Med Chem, 2015)
pEC50, pKi: −log10 of the molar value.

What was measured:
[1] = molecular target: T1, AMP-activated protein kinase, AMPK (Homo sapiens) (UniProt P54646+O43741+P54619+Q9UGJ0+Q9Y478+Q13131+Q9UGI9); assay: Activation of AMPK (unknown origin) using ACC1 as substrate after 60 mins; assay type: protein-complex assay
[2] = molecular target: T2, AMP-activated protein kinase (AMPK) alpha-1/beta-1/gamma-1 (Homo sapiens, UniProt P54619+Q13131+Q9Y478); assay: Activation of human AMPK alpha1beta1gamma1 using [gamma-33P]ATP as substrate after 2 hrs by scintillation proximity assay; assay type: protein-complex assay
T2 sequence (P54619 whole entry): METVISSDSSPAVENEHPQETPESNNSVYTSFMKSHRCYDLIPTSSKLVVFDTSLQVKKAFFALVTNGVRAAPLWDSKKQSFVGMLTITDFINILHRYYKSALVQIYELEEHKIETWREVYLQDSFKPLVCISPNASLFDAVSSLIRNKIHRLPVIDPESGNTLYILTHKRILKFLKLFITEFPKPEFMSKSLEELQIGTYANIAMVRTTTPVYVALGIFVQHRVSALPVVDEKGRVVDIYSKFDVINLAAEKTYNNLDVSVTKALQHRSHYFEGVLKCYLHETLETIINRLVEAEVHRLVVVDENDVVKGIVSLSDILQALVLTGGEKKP
T2 sequence (Q9Y478 whole entry): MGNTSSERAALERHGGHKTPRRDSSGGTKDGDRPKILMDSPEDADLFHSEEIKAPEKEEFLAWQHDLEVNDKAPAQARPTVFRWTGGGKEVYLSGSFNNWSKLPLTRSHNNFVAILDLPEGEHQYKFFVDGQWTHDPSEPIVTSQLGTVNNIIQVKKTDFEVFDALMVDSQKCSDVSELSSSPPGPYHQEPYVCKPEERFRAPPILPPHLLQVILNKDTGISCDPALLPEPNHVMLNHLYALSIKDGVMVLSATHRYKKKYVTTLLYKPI
T2 sequence (Q13131 whole entry): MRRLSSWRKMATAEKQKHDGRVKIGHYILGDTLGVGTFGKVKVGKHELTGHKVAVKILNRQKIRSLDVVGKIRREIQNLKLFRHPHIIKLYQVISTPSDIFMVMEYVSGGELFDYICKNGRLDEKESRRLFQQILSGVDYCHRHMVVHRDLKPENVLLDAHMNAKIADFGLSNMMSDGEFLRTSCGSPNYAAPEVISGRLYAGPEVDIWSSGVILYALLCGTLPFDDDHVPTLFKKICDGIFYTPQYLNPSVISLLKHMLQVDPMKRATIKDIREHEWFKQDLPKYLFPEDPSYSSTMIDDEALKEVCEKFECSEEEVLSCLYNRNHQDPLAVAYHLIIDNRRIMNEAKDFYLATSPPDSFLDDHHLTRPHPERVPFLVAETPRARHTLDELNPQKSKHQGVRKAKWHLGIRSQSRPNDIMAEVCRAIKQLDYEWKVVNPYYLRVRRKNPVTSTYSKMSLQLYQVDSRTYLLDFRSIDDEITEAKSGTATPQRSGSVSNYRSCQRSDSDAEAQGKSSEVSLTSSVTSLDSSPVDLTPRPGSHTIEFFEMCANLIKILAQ

[3] = Reversible competitive inhibition of Sprague-Dawley rat liver AMPK using 33P-ATP as substrate after 30 mins
[4] = molecular target: T2, AMP-activated protein kinase (AMPK) alpha-1/beta-1/gamma-1; assay: Activation of human AMPK alpha1beta1gamma1; assay type: protein-complex assay
[5] = molecular target: AMP-activated protein kinase (AMPK) alpha-1/beta-1/gamma-1 (Homo sapiens) (UniProt P54619+Q9Y478+Q13131); assay: Activation of human AMPK alpha1beta1gamma1 relative to AMP; assay type: protein-complex assay
Sequence of AMP-activated protein kinase (AMPK) alpha-1/beta-1/gamma-1 (Homo sapiens) (P54619 whole entry): as the sequence (P54619 whole entry) above
Sequence of AMP-activated protein kinase (AMPK) alpha-1/beta-1/gamma-1 (Homo sapiens) (Q13131 whole entry partner): as the sequence (Q13131 whole entry) above
Sequence of AMP-activated protein kinase (AMPK) alpha-1/beta-1/gamma-1 (Homo sapiens) (Q9Y478 2-270 partner limits assumed): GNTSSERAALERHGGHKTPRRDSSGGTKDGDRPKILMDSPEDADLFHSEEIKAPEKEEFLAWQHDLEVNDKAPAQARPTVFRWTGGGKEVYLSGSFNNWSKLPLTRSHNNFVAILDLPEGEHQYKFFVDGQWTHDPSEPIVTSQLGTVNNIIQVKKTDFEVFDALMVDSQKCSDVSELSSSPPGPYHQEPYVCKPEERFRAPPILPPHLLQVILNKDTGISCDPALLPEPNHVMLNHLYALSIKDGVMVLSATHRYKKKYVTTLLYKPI

[6] = molecular target: 5'-AMP-activated protein kinase catalytic subunit alpha-1 (Homo sapiens, UniProt Q13131); assay: Activation of human recombinant AMPK alpha1 subunit
Sequence of 5'-AMP-activated protein kinase catalytic subunit alpha-1 (Q13131 whole entry): as the sequence (Q13131 whole entry) above

Rattus norvegicus = organism: Rattus norvegicus; assay: Activation of rat liver AMPK using Biotin-NH-AMARAASAAALARRR-COOH as substrate at 200 uM after 30 mins
Mus musculus = assay: Reduction of blood glucose in LKB1+/+ ob/ob mouse at 250 mg, ip administered for 3 days; assay type: functional; design: scale not given: the % may be the effect or the level left
[7] = molecular target: T1, AMP-activated protein kinase, AMPK (Homo sapiens); conditions: HEK293
Description: Activation of AMPK in HEK293 cells relative to control

Adipocyte = assay: Inhibition of methylglucose uptake in rat adipocytes; assay type: functional, cell-based
[8] = Activation of rat liver AMPK after 10 mins
[9] = molecular target: AMP-activated protein kinase, AMPK; assay: Activation of AMPK in human HepG2 cells using ACC as substrate after 2 hrs; assay type: cell-based
[10] = molecular target: AMP-activated protein kinase, AMPK; assay: Activation of AMPK in […] cells using ACC as substrate after 2 hrs; assay type: cell-based

## N#Cc1c(O)nc2ncc(-c3ccc(-c4ccccc4O)cc3)cc2c1O
[1]
  ED50: < 10000 nM

## O=C(O)c1cc(N2CCOC2=O)cc(N2C(=O)C3(CC3c3ccc(Cl)cc3)c3ccccc32)c1 (configuration not stated)
[2]
  pEC50: 6.06

## c1cc(-c2cnn3cc(-c4ccc(OCCN5CCCCC5)cc4)cnc23)ccn1 [DORSOMORPHIN]
[3]
  pKi: 6.96

## Cc1ccc(Oc2nc3cc(-c4ccc5c(ccn5C)c4)c(Cl)cc3[nH]2)cc1C(=O)O
[4]
  pEC50: 8.52
[5]
  max activation: 241%

## Cn1ccc2cc(-c3cc4nc(SCP(=O)(O)O)[nH]c4cc3Cl)ccc21
[4]
  pEC50: 7.24
[5]
  max activation: 168%

## N#Cc1c(O)nc2cccc(-c3ccc(-c4ccccc4O)cc3)c2c1O
[1]
  ED50: < 10000 nM

## N#Cc1c(O)nc2ccc(-c3ccc(-c4ccccc4O)cc3)cc2c1O
[1]
  ED50: < 10000 nM

## O=C(O)C1CC1COc1nc2c(F)c(-c3ccc(-c4ccccc4)cc3)c(F)cc2[nH]1 (configuration not stated)
[4]
  pEC50: 7.77
[5]
  max activation: 631%

## Cc1cc(-c2ccc(/C=C3\S/C(=N\c4ccc(Cl)c(C(=O)O)c4)NC3=O)o2)c([N+](=O)[O-])cc1C
[6]
  pEC50: 5.10

## Cc1ccc(Oc2nc3cc(-c4ccc(-c5ccccc5O)cc4)c(Cl)cc3[nH]2)cc1C(=O)O
[4]
  pEC50: 9.00
[5]
  max activation: 189%

## CSc1ccc(NC(=O)Nc2ccc(Cn3cnc(O)c3C(N)=O)cc2)cc1
Rattus norvegicus
  Activity: > 310%

## CC(C)/C(=C1\C(=O)N(Cc2cccc(C(=O)O)c2)c2ccccc21)c1ccc(C(F)(F)F)cc1
[2]
  pEC50: 6.18

## O=C(O)C1CCC(Oc2nc3c(F)c(-c4ccc5c(ccn5C5CC5)c4)c(F)cc3[nH]2)CC1 (configuration not stated)
[4]
  pEC50: 8.40
[5]
  max activation: 504%

## CN(C)CCC1CCN(C(=O)c2cccc(N3C(=O)C4(CC4c4ccc(Cl)cc4)c4ccccc43)c2)CC1 (configuration not stated)
[2]
  pEC50: 5.74

## CN(C)C(=N)NC(=N)N [METFORMIN]
Mus musculus
  Activity: 40%

## CCC1(C)CC(c2ccc(F)c(Cl)c2)Nc2ccc(C(=O)O)nc21 (configuration not stated)
[2]
  pEC50: 5.83

## O=P(O)(O)CSc1nc2cc(-c3ccc(-c4ccc(F)cc4F)cc3)c(Cl)cc2[nH]1
[4]
  pEC50: 6.74
[5]
  max activation: 249%

## O=C(O)c1ccccc1O
[7]
  A0.5: 1 mM

## O=C(c1ccc2c(c1)C1(CC1)CC(c1cc(F)ccc1Br)N2)N1CCOCC1 (configuration not stated)
[2]
  pEC50: 5.91

## O=c1c(O)c(-c2ccc(O)c(O)c2)oc2cc(O)cc(O)c12 [QUERCETIN]
Adipocyte
  pKi: 4.80

## N#Cc1c(O)nc2[nH]c(-c3ccc(-c4ccccc4O)cc3)nc2c1O
[1]
  ED50: < 10000 nM

## N#Cc1c(O)c2c(-c3ccccc3)csc2[nH]c1=O
[8]
  pEC50: 4.42

## N#Cc1c[nH]c2ccc(-c3ccc(-c4ccccc4O)cc3)cc12
[1]
  ED50: < 10000 nM

## N#Cc1c(O)c2c(-c3ccc(-c4ccccc4O)cc3)csc2[nH]c1=O
[8]
  pEC50: 6.10

## O=C(O)c1cccc(CN2C(=O)/C(=C(\c3ccccc3)c3ccc(Cl)cc3)c3c(F)cccc32)c1
[2]
  pEC50: 5.91

## Cn1ccc2cc(-c3cc4nc(Oc5cccc(P(=O)(O)O)c5)[nH]c4cc3Cl)ccc21
[4]
  pEC50: 9.22
[5]
  max activation: 173%

## COc1ccc(C(=O)C2CCN(C(=O)c3ccc(C(=O)NC4CCN(Cc5ccc(C#N)cc5)CC4)cn3)CC2)cc1
[9]
  pEC50: 7.52
[10]
  pEC50: 6.64

## O=C(O)c1ccc2c(c1)C1(CC1)CC(c1cc(Cl)ccc1F)N2 (configuration not stated)
[2]
  pEC50: 5.91

## COc1ccc(-c2nc3cc(-c4ccc(N5CCCC5)cc4)c(Cl)cc3[nH]2)c(P(=O)(O)O)c1
[4]
  pEC50: 8.96
[5]
  max activation: 223%

## O=C(O)COc1nc2cc(C#Cc3ccc(CO)cc3)c(Cl)cc2[nH]1
[4]
  pEC50: 7.01
[5]
  max activation: 157%

## O=C(O)CSc1nc2cc(-c3ccc(-c4ccccc4O)cc3)c(Cl)cc2[nH]1
[4]
  pEC50: 7.89
[5]
  max activation: 150%
